The term inhibition denotes the percentage by which the read-out fell short of the control. One may read the Km as the substrate concentration at which the rate is half of its maximum.

Sequence of Glyceraldehyde-3-phosphate dehydrogenase (Homo sapiens), P04406 (P04406 whole entry): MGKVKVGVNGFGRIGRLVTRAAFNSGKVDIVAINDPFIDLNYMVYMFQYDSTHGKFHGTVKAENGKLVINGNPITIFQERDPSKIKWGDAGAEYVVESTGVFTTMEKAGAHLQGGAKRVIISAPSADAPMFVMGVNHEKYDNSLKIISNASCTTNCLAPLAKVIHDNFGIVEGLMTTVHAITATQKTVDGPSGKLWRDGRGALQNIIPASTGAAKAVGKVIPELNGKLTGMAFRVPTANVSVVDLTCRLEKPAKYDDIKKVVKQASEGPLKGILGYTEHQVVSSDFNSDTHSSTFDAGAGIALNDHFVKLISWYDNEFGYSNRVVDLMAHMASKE

The first data set deals with Leishmania mexicana. Briefly: Inhibition of Leishmania mexicana GAPDH(glyceraldehyde-3-phosphate dehydrogenase). Set-up: concentration or dose not given beside the values. The conditions noted are these: concentration not given here.
In turn, `NC(=O)CCC(=O)NC[C@H]1OC(n2cnc3c(NCc4ccccc4)ncnc32)[C@H](O)[C@@H]1O` (some centres undefined) yielded an inhibition of 74%.
As to `O=C(NC[C@H]1OC(n2cnc3c(NCc4ccccc4)ncnc32)[C@H](O)[C@@H]1O)c1cc(O)cc(O)c1` (some centres undefined), the inhibition stood at 100%.
The same measure, in the same setting: as for `COc1cccc(C(=O)N[C@@H]2[C@H](O)[C@@H](COC(=O)c3ccccc3C(=O)O)O[C@H]2n2cnc3c(NCc4ccccc4)ncnc32)c1`, the figure is 100%.
Same read-out and setting: as for `Nc1ncnc2c1ncn2C1O[C@H](COC(=O)CCC(=O)O)[C@@H](O)[C@H]1O` (some centres undefined), the figure is 100%.
Still for that read-out and setting: as for `Nc1ncnc2c1nc(N1CCCC1)n2C1O[C@H](CO)[C@@H](O)[C@H]1O` (some centres undefined), the figure is 100%; as for `Nc1ncnc2c1ncn2[C@@H]1O[C@H](COC(=O)c2ccccc2)[C@@H](O)[C@H]1O`, 67%.
In turn, `OC[C@H]1OC(n2c(-c3cccs3)nc3c(NCc4ccccc4)ncnc32)[C@H](O)[C@@H]1O` (some centres undefined) gave an inhibition of 100%.
Same read-out and setting: as for `O=C(Cc1ccccc1)NC[C@H]1OC(n2cnc3c(NCc4ccccc4)ncnc32)[C@H](O)[C@@H]1O` (some centres undefined), the figure is 77%; as for `O=C(CC1CCCCC1)NC[C@H]1OC(n2cnc3c(NCc4ccccc4)ncnc32)[C@H](O)[C@@H]1O` (some centres undefined), 77%; as for `Nc1ncnc2c1nc(NCc1ccccc1)n2[C@@H]1O[C@H](CO)[C@@H](O)[C@H]1O`, 100%.
Compound `CN(C)c1nc2c(N)ncnc2n1C1O[C@H](CO)[C@@H](O)[C@H]1O` (some centres undefined) gave an inhibition of 75%.
Same read-out and setting: as for `Nc1ncnc2c1ncn2C1O[C@H](COC(=O)c2ccc3ccccc3c2)[C@@H](O)[C@H]1O` (some centres undefined), the figure is 100%; as for `Cc1ccccc1CNc1ncnc2c1nc(-c1cccs1)n2C1O[C@H](CO)[C@@H](O)[C@H]1O` (some centres undefined), 100%.
Consider `CC(C)=CCNc1ncnc2c1ncn2[C@@H]1O[C@H](CO)[C@@H](O)[C@H]1O`, for which the inhibition came to 84%.
The same measure, in the same setting: as for `Nc1ncnc2c1nc(NCCO)n2C1O[C@H](CO)[C@@H](O)[C@H]1O` (some centres undefined), the figure is 80%; as for `O=C(O)CCCC(=O)NC[C@H]1OC(n2cnc3c(NCc4ccccc4)ncnc32)[C@H](O)[C@@H]1O` (some centres undefined), 79%; as for `Nc1ncnc2c1nc(N1CCCCC1)n2[C@@H]1O[C@H](CO)[C@@H](O)[C@H]1O`, 100%.

A further data set deals with Leishmania mexicana.
Conditions: not given
Consider `CC(C)=CCNc1ncnc2c1nc(-c1cccs1)n2C1O[C@H](CO)[C@@H](O)[C@H]1O` (some centres undefined), for which the Michaelis-Menten constant (Km) stood at 400 µM.

A further data set concerns CC(C)=CCNc1ncnc2c1nc(-c1cccs1)n2C1O[C@H](CO)[C@@H](O)[C@H]1O.
Conditions: not given
For “Glyceraldehyde-3-phosphate dehydrogenase (Homo sapiens), P04406”, the Km is 40 µM.

The record behind these values is ChEMBL document CHEMBL1130706, “Synthesis and structure-activity relationships of adenosine analogs as inhibitors of trypanosomal glyceraldehyde-3-phosphate dehydrogenase. Modifications at positions 5' and 8” (Bioorg Med Chem Lett, 1998).
